melting point [°C]	Compound
100	CCN1CCCC1CNC(=O)Cc1ccc(-c2ccc3c(=O)c(-c4ncc[nH]4)c(N)n(CC)c3n2)cc1F (stereo not drawn)
192 to 193	O=S(=O)(c1cccs1)N(CCN1CCOCC1)c1cccc2cc(-c3nccs3)[nH]c12
203 to 206	O=C(Nc1c[nH]nc1C(=O)NCC(F)(F)F)c1ccccc1
171 to 173	O=C1CC(=O)CC(c2cc([N+](=O)[O-])ccc2F)C1
97 to 98	c1ccc(COc2ccc(CCCCn3ccnc3)cc2)cc1
56	CCOC(=O)c1sc(C)nc1Oc1cccc(C(F)(F)F)c1
283 to 284	N#Cc1ccnc(-c2nc(=O)c3ccccc3s2)c1
298 to 299	COc1ccc2ncn(/C=C/C(=O)O)c(=O)c2c1
127 to 128	Cc1cn(-c2cc(C#N)cc(C(F)(F)F)c2)cn1
95 to 97	Cc1nc(-c2ccccc2)n(C)c1C=NOCCO
211 to 212	CCCCOC(=O)c1cc2c(cn1)[nH]c1ccccc12
159 to 163	O=C(CC1CCCCC1)Nc1c(Cl)ccc2nc(CCCNCCCO)ccc12
97 to 98	COC(=O)CC1CC(c2ccc(C#N)cn2)=NO1 (stereo not drawn)
152 to 155	CC(C)(C)c1nc2cc(N3CCN(c4ccccc4)CC3)c([N+](=O)[O-])cc2s1
163	COc1cc2c(cc1Nc1ncc(Cl)c(N[C@H]3[C@@H](C(N)=O)[C@@H]4C=C[C@H]3C4)n1)CCN(CC(=O)N1CCOCC1)CC2
129 to 131	CC(C)(C)c1ccc(/C=N/OCCOc2ccc(C(=O)O)c(OC(=O)c3ccccc3)c2)cc1
141 to 142	Clc1ccc(CN2CC=C(/C=C/c3ccccc3)CC2)cc1
165 to 166	Cn1cc(CNC(=O)c2ccnc(N3CCN(Cc4ccc(F)cc4)C3=O)c2)cn1
118	OC(=S)Cc1cc(Cl)ccc1Cl
169 to 171	Cc1ccc(C(=O)c2cc3cc(Br)ccc3n2C)cc1
184 to 186	CC(=O)c1c(C)c(NC(=O)CC(C)(C)C)c(C)c2c1S(=O)(=O)CC2c1ccc(C(C)C)cc1 (stereo not drawn)
218 to 219	COCCOc1cc(NS(=O)(=O)c2ccccn2)c2[nH]c(C3=NCC(CN4CCS(=O)(=O)CC4)S3)cc2c1 (stereo not drawn)
119 to 120	CCc1nc2ccn(-c3ccccc3)n2c(=O)c1C(=O)O
126 to 127	COC(=O)CCCc1ccc(CN2CCN(c3ccncc3)CC2)cc1
113 to 120	Cc1ccc(Cc2cnc(NCCCNc3cccc(C)n3)[nH]c2=O)cn1

melting point [°C]	Compound
246	CNNc1ccc(-c2ccc3c(=O)c(C(=O)O)cn(C4CC4)c3c2C)cn1
93 to 96	ClCc1csc(-c2ccc(Cl)c(Cl)c2)n1
98 to 100	CS(=O)(=O)N1CCSc2ccccc2C1
99 to 102	CCOC(=O)c1ccc(Nc2ccc([N+](=O)[O-])cc2[N+](=O)[O-])cc1
286 to 287	O=C(O)c1ccc(-c2noc(-c3ccc(C(F)(F)F)cc3)n2)cc1
92.5 to 93	Oc1ccccc1CNC1CCN(Cc2ccccc2)CC1
142 to 143	c1ccc(Nc2c(-c3ccccc3)sc3ccccc23)cc1
179 to 180	O=C(O)CCc1oc(-n2ccnc2-c2ccccc2)nc1-c1ccc(Cl)cc1
88 to 90	FC(F)c1cn(-c2c(Cl)cc(C(F)(F)F)cc2Cl)nc1C(F)(F)F
128 to 130	CCc1nc2c(N)nc3ccc(O)cc3c2n1CCCCNS(C)(=O)=O
112 to 115	CCCCCCCCCCCCCCOc1ccc(C(=O)Nc2cccc(CO)c2)cc1
58 to 60	CCOc1ccccc1OCCN(CCCC(OCC)c1ccc(F)cc1)C(C)=O (stereo not drawn)
214 to 217	CCOC(=O)c1nccc(Oc2ccc3c(C(=O)O)cccc3c2)n1
72 to 77	CC(CCCCc1ccc(F)cc1)NCc1c(CO)ccc(O)c1CO (stereo not drawn)
104 to 105	CCOC(=O)/C=C/c1sc(SC)c2c1CCCC2=O
166	O=C(C=Cc1ccc(-c2ccc3ncnc(Nc4ccc(OCc5cccc(F)c5)c(Cl)c4)c3c2)s1)NOC1CCCCO1 (stereo not drawn)
165 to 166	CCOC(=O)c1[nH]c(C)nc1C
128 to 129	CCn1nc2c(N)nc3ccccc3c2c1CCCCOC(C)=O
212 to 213	CCc1[nH]n(C2CCCC2)c2nc(-c3cccc(OCC(=O)N4CCOCC4)c3)nc(=O)c1-2
158 to 161	CCOc1cccc(CSc2nc3cnccc3[nH]2)c1
50	CC(C)(C)c1ccc(C2=NC[C@@H](O)[C@H](c3ccccc3)O2)cc1 (racemic)
97 to 99	CCOC(=O)CCCCCC=C(NCCC(O)C1CCCCC1)C(=O)OCC (stereo not drawn)
115 to 117	COc1ccc(/C=C/S(=O)(=O)Nc2ccc(F)cc2)cc1
82	O=C(NC(=S)Nc1ccc(F)cc1)c1ccccc1
244 to 245	CC1(C)C(=O)Nc2cc(C(=O)Nc3cccc(N)c3)ccc21

melting point [°C]	Compound
169 to 171	COc1ccc(N2C(=O)c3ccc(Cl)cc3C2CC(=O)N2CCN(C)CC2)cc1 (stereo not drawn)
273 to 275	CS(=O)(=O)c1ccccc1-c1ccc(C(=O)O)cc1
173 to 175	FC(F)(F)CNC(=S)Nc1cccc(COC(=S)NCC(F)(F)F)n1
111	COc1ccc(Cc2nccc3c4c(ccc23)OCO4)cc1OC
190 to 193	CCCCN(Cc1ccccc1)CC1CCc2c(C)cc3c(c2C1=O)CCC(=O)N3 (stereo not drawn)
206	O=C(O)c1sc(C(c2ccc(Cl)cc2)c2c(Cl)cc(-n3ncc(=O)[nH]c3=O)cc2Cl)nc1-c1ccccc1 (stereo not drawn)
206 to 207	CC(=O)Nc1ccc(C(=O)C=CC(=O)O)cc1
112 to 113	C=CCC(C(=O)OC)C(=O)c1cccnc1 (stereo not drawn)
148 to 151	COC(=O)c1ccc(NC(C)=O)cc1O
97 to 99	C=C(C)C(=O)OCc1c(Br)c(Br)c(Br)c(COC(=O)C(=C)C)c1Br
42 to 43	CCC(C)S(=O)(=O)c1snc(OC(F)F)c1C#N (stereo not drawn)
181	O=c1[nH]c2ccc(Cl)cc2n1CCCN1CCC(O)(c2ccc(Cl)cc2)CC1
63 to 66	O=Cc1ccccc1-c1ccc(CBr)cc1
74 to 80	COC(=O)[C@H](Cc1ccc(NC(=S)NCCCc2ccccc2)cc1)NC(=O)[C@@H]1CCCN1S(=O)(=O)c1ccc(C)cc1
85 to 86	COC(=O)C1CCc2sccc2C1=O (stereo not drawn)
71 to 72	CC(=O)OCC=C(C)C=CC=C(C)C=O
144 to 145	Cc1cc(O)c(S(=O)(=O)Cc2ccc(Cl)c(Cl)c2)c(=O)o1
165 to 168	CN1CCCC1=NC(=O)Nc1c(Br)cc(Br)cc1Br
226 to 227	O=C(Nc1cc(-c2c(-c3ccc(F)cc3)nc3cccnn23)ccn1)c1ccncc1
168 to 172	CC(CO)N=C(c1ccccc1)c1cc(Cl)ccc1NC(=O)CN (stereo not drawn)
97 to 98	CC(C)(C)OC(=O)NCCNC(=O)c1ncccc1Oc1ccccc1
131 to 133	COc1ccc(NC(=O)[C@H]2[C@H](c3ccccc3)C23CCCC3)c(OC)n1 (relative stereo)
198 to 200	O=C(O)c1nc2cc(Oc3cccc([N+](=O)[O-])c3)c([N+](=O)[O-])cc2[nH]c1=O
130	O=C(O)CCCCCCCn1cnc(-c2ccccc2)c1-c1ccccc1
146 to 147	O=C1N(Cc2ccccn2)c2cccnc2C12COc1cc3c(cc12)OCCO3 (stereo not drawn)

melting point [°C]	Compound
76 to 77	COC(=O)CNC(=O)CC(=O)CBr
161	CCOC(=O)/C(=N\OCC(=O)N(CC)CC)c1csc(N)n1
79 to 81	CNc1nnc(C(C)(C)C)s1
227 to 230	COc1ccc(N2CCOCC2)cc1NC(=O)c1ncc[nH]1
129 to 131	CNc1nc(Cl)c(Cl)c(N2CCN(C(=O)OC(C)(C)C)CC2)n1
87 to 88	Cc1nc2ccnn2c(Cl)c1CCCl
228 to 230	COc1cc2nc(Cl)nc(-c3cccc([N+](=O)[O-])c3)c2cc1OC
158	O=C(C=Cc1ccc([N+](=O)[O-])cc1)N1CCc2c([nH]c3ccccc23)C1c1ccc2c(c1)OCO2 (stereo not drawn)
78	CCCCSc1nc(O)ns1
105 to 109	CCOC(=O)c1ccc2ccccn2c1=O
104 to 105	CSC(c1ccccc1)S(=O)c1ccccc1 (stereo not drawn)
80 to 81	COc1cc(C(O)C#N)ccc1O (stereo not drawn)
188 to 189	CN1CC(=O)N2c3ccccc3Cn3c(cc4ccccc43)C2C1=O (stereo not drawn)
145 to 148	CCN(CC)CCn1cc(C(=O)NCc2ccc(Cl)cc2)c(=O)c2cc(C#CCO)ccc21
178	NC(=O)CCC1CCC(=O)N1 (stereo not drawn)
154 to 158	CC(C)Cn1cc(C(N)=O)c(N)n1
137	CC(C)(C)CC(C)(C)c1cc(Cc2cc(C(C)(C)C)cc(C(C)(C)C)c2O)c(O)c(-n2nc3ccccc3n2)c1
163 to 166	O=Cc1cccc(OC(=O)C(=O)Oc2cccc(C=O)c2)c1
127 to 132	CCCCCN1C(=O)C(NC(=O)C2CCc3ccccc3C2)c2ccccc21 (stereo not drawn)
> 230	O=C1Nc2ccc(Cl)cc2C(c2ccccc2)N1C1CCN(Cc2ccccc2)CC1 (stereo not drawn)
198 to 202	CC1=NN=C(C=Cc2ccc(C#N)cc2)c2cc3c(cc2C1)OCO3
196 to 197	CCn1ncc2c1ncc1c(Cl)nc3ncnn3c12

Compound	melting point [°C]
CS(=O)c1cccc2c1C(=O)N1CCCC1c1c(C(=O)OC(C)(C)C)ncn1-2 (stereo not drawn)	224 to 225
Cc1ccc(Cn2nc(C(=O)NC3C(C)CCCC3C)cc2-c2ccc(Cl)c(Cl)c2)cc1Cl (stereo not drawn)	59.9
CCN(CC)C(=O)CN1C(=O)C(NC(=O)Nc2ccc(Cl)cc2)N=C(c2ccccc2)c2ccccc21 (stereo not drawn)	284 to 285
CCc1ccc(CC2N=C(c3ccc(F)cc3)c3cc(Cl)ccc3NC2=O)cc1CC (stereo not drawn)	88 to 90
Cc1cc(C2=NOC(c3cc(Cl)cc(Cl)c3)(C(F)(F)F)C2)ccc1Cl (stereo not drawn)	110 to 111
COc1cccc(C23CCN(C(=O)c4ccccc4)CC2CCC(=O)C3)c1 (stereo not drawn)	78

— a melting point compilation (Tetko et al.; mined from patent text by program, amines drawn as free bases though some values may be those of a salt)
